Experimental data from patent US20250255857A1, “METHODS OF TREATING ANDROGEN RECEPTOR-INDEPENDENT PROSTATE CANCER” (FOGHORN THERAPEUTICS INC., priority 2022, published 2025).
Values joined by “and” are separate entries in the source; they are usually repeats but may differ in a detail not shown here. Identical values can stand only once. Like-named read-outs stand apart in the source and are kept apart here.

Experiments:
[1] = tested on: VCaP prostate xenograft tumors; assay: VCaP prostate xenograft tumor model (Example 1), tumor growth inhibition; type: in vivo, mice
Protocol: (§1) Procedure: The experimental details of the studies, including tumor model, mouse strain, cell number implanted, vehicle used, days of treatment, treatment details, and average tumor size at start of dosing are outlined in Table 1. All study mice were purchased from Beijing Anikeeper Biotech and Matrigel was utilized as a basement membrane for all xenograft models. All xenografts were engrafted subcutaneously in the right flank region. The vehicles and Compound 1 (3 mg/kg) were administered twice weekly (BIW) intraperitoneally and enzalutamide (30 mg/kg) was administered orally once daily (QD), when applicable. Tumor volumes and body weights were measured over the course of study, and doses were adjusted by body weight to achieve the proper dose in terms of mg/kg.

[2] = tested on: PC3 prostate xenograft tumors; assay: PC3 prostate xenograft tumor model, tumor growth inhibition; type: in vivo, mice
Protocol: as §1

[3] = tested on: NCI-H660 prostate xenograft tumors; assay: NCI-H660 prostate xenograft tumor model, tumor growth inhibition; type: in vivo, mice; settings: NCI-H660 CDX model
Protocol: as §1

[4] = tested on: C42B prostate xenograft tumors; assay: C42B prostate xenograft tumor model, tumor growth inhibition; type: in vivo, mice
Protocol: as §1

[5] = tested on: 22Rv1 prostate xenograft tumors; assay: 22Rv1 prostate xenograft tumor model, tumor growth inhibition; type: in vivo, mice
Protocol: as §1

[6] = tested on: DU145 human prostate cancer tumor cells; assay: DU145 subcutaneous CDX model efficacy study (tumor growth inhibition, tolerability); type: in vivo, mice; settings: for tumor growth inhibition (TGI): DU145, P<0.001 vs. vehicle control; for Tumor Growth % on Day 49 / Tumor Size on Day 49 / T/C / TGI: DU145 subcutaneous model, 43 days; for T/C / TGI: Day 49
Protocol: (§2) Procedure: The experimental details of the studies, including tumor model, mouse strain, cell number implanted, vehicle used, days of treatment, treatment details, and average tumor size at start of dosing are outlined in Table 3. All study mice were obtained and the studies were conducted at Pharmaron. Each mouse was inoculated subcutaneously on the right flank with the single cell suspension of DU145 human prostate cancer tumor cells (5×10^6) in 0.1 mL with Matrigel (1:1) in MEM with 10% FBS for tumor development.
(§3) Based on tumor volume, mice were randomly assigned to respective groups using a computer-generated randomization procedure. The study groups and the number of animals per group are shown in Table 4A (efficacy study) and Table 4B (PKPD study).
Treatment for the efficacy cohort was initiated when the mean tumor volume reached 145 mm^3 on Day 7 post tumor cell inoculation. Animals for the efficacy study were randomized into 3 groups: 1) Vehicle Control BIW IP (administered twice per week, intraperitoneally (IP); 2) Compound 1 at 3 mg/kg BIW IP; and 3) Compound 1 at 15 mg/kg BIW IP.
(§4) In the case of an animal reaching a tumor size exceeding 2000 mm^3, the entire group was terminated. Plasma and tumor samples were collected at 4 hours and 72 hours post last dose for all groups. For the PKPD Cohort, the tumors were cut into 2 pieces: one for Western Blotting (WB) with BRD9 analysis, and one for RNAseq analysis. For the Efficacy Cohort, the tumors were analyzed for BRD9 levels by Western Blotting (WB).

[7] = Plasma concentration of Compound 1 in DU145 PK/PD cohort; type: in vivo; settings: for concentration at 72 h: BALA/c nude (sic, BALB/c nude); for concentration at 72 h / concentration at 4 h: mouse, plasma, intraperitoneal; for concentration at 4 h: BALB/c nude
Protocol: as §2, §3
(§5) Treatment for the PKPD cohort was initiated when the mean tumor volume reached 281 mm^3 on Day 14 post tumor cell inoculation. Animals were randomized into 5 groups: 1) Vehicle Control, 3 doses intraperitoneally (IP); 2) Compound 1 at 1 mg/kg, single dose IP; 3) Compound 1 at 15 mg/kg, single dose IP; 4) Compound 1 at 1 mg/kg, 3 doses IP; and 5) Compound 1 at 15 mg/kg, 3 doses IP.
as §4

BRD9 protein = biological target: T1, BRD9 protein (Homo sapiens, UniProt Q9H8M2); assay: BRD9 levels in DU145 tumors by Western Blotting (PK/PD cohort); type: in vivo; settings: for BRD9 protein degradation (Western Blot): 72 h post last dose, P<0.05 vs. vehicle control
T1 construct: endogenous in cells; host or cells: DU145 human prostate cancer cells grown as subcutaneous xenograft tumors in mice
T1 sequence (Q9H8M2 1-597): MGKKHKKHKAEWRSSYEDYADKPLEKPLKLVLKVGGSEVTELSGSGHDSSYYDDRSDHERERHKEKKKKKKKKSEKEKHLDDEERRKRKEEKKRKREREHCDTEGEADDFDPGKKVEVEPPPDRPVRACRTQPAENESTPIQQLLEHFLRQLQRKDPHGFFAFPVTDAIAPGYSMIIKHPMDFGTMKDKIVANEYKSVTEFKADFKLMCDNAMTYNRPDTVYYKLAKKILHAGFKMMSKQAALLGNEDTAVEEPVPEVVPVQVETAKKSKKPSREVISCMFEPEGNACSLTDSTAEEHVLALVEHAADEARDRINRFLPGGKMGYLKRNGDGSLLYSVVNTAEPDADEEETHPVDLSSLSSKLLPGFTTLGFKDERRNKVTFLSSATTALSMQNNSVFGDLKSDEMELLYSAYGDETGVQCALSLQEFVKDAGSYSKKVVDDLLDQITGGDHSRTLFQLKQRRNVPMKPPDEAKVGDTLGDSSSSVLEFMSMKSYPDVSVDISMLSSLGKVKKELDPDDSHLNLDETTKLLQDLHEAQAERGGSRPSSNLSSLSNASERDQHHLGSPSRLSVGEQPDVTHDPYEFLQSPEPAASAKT
Protocol: as §2, §3, §5, §4

## COc1cc(-c2cn(C)c(=O)c3cnc(N4CCC4)cc23)cc(OC)c1CN1CCC(CN2CCC3(CC2)CN(c2ccc4c(c2)C(=O)N(C2CCC(=O)NC2=O)C4)C3)CC1 (stereo not drawn) [Compound 1, 3-(6-(7-((1-(4-(6-(azetidin-1-yl)-2-methyl-1-oxo-1,2-dihydro-2,7-naphthyridin-4-yl)-2,6-dimethoxybenzyl)piperidin-4-yl)methyl)-2,7-diazaspiro[3.5]nonan-2-yl)-1-oxoisoindolin-2-yl) piperidine-2,6-dione]
[1]; VCaP CDX model, AR V7+, 3 mg/kg BIW IP
  TGI with Compound 1 3 mg/kg: 57.8%
[1]; VCaP xenograft, Compound 1 3 mg/kg BIW IP, enzalutamide 30 mg/kg QD oral
  tumor growth inhibition, in words: tumor growth inhibition that was greater than the inhibition provided by enzalutamide treatment
[2]; PC3 CDX model, AR−, 3 mg/kg BIW IP
  TGI with Compound 1 3 mg/kg: 61.7%
[2]; PC-3 CDX model, Compound 1 3 mg/kg BIW IP
  TGI: 61.7%
[3]; AR−, 3 mg/kg BIW IP
  TGI with Compound 1 3 mg/kg: 56.9%
[3]; Compound 1 3 mg/kg BIW IP
  TGI: 56.9%
[4]; C42B CDX model, AR+, 3 mg/kg BIW IP
  TGI with Compound 1 3 mg/kg: 28.7%
[4]; C42B xenograft, Compound 1 3 mg/kg BIW IP, enzalutamide 30 mg/kg QD oral
  tumor growth inhibition, in words: modest tumor growth inhibition which was less than the TGI provided by enzalutamide treatment
[5]; 22RV1 CDX model, AR V7+, 3 mg/kg BIW IP
  TGI with Compound 1 3 mg/kg: 73.2%
[5]; 22RV1 xenograft, Compound 1 3 mg/kg BIW IP, enzalutamide 30 mg/kg QD oral
  tumor growth inhibition, in words: modest tumor growth inhibition which was less than the TGI provided by enzalutamide treatment
[5]; 22Rv1 CDX model, Compound 1 3 mg/kg BIW IP, enzalutamide 30 mg/kg QD oral
  TGI: 73.2%
[6]; 3 mg/kg BIW IP
  tumor growth inhibition (TGI): 42.2%
  Tumor Growth % on Day 49: 710 ± 19%
  Tumor Size on Day 49: 1029 ± 30 mm^3
  T/C: 57.8%
  TGI: 42.2%
[6]; 15 mg/kg BIW IP
  tumor growth inhibition (TGI): 55.3%
  Tumor Growth % on Day 49: 549 ± 26%
  Tumor Size on Day 49: 793 ± 31 mm^3
  T/C: 44.7%
  TGI: 55.3%
[6]; DU145 study, 1 mg/kg, 3 mg/kg and 15 mg/kg IP during the treatment period
  safety profile: tolerability: tolerated Compound 1 well
[6]; DU145 study, any of the animals treated
  clinical abnormalities: No obvious clinical abnormalities
[7]; 1 mg/kg BIW 3 doses IP, 4 hours post last dose, group 4
  Plasma Concentration of Compound 1 (individual mice): 10.9 ng/mL and 14.4 ng/mL and 6.89 ng/mL
[7]; 1 mg/kg BIW 3 doses IP, 72 hours post last dose, group 4
  Plasma Concentration of Compound 1 (individual mice): 2.75 ng/mL and 1.85 ng/mL
[7]; 1 mg/kg IP
  difference in PK between a single dose or three doses: No difference in PK
[7]; 1 mg/kg single dose IP, 4 hours post last dose, group 2
  Plasma Concentration of Compound 1 (individual mice): 18.0 ng/mL and 9.37 ng/mL and 8.07 ng/mL
[7]; 1 mg/kg single dose IP, 72 hours post last dose, group 2, BLOQ = below quantifiable limit of 1.05 ng/mL
  Plasma Concentration of Compound 1 (individual mice): 1.59 ng/mL and BLOQ*
[7]; 15 mg/kg BIW 3 doses IP, 4 hours post last dose, group 5
  Plasma Concentration of Compound 1 (individual mice): 63.4 ng/mL and 71.3 ng/mL
[7]; 15 mg/kg BIW 3 doses IP, 72 hours post last dose, group 5
  Plasma Concentration of Compound 1 (individual mice): 10.5 ng/mL and 6.77 ng/mL
[7]; 15 mg/kg IP
  PK exposure, single dose vs three doses: 15 mg/kg (single dose) group had better PK exposure than the 15 mg/kg (three doses) group
[7]; 15 mg/kg single dose IP, 4 hours post last dose, group 3
  Plasma Concentration of Compound 1 (individual mice): 132 ng/mL and 92.3 ng/mL
[7]; 15 mg/kg single dose IP, 72 hours post last dose, group 3
  Plasma Concentration of Compound 1 (individual mice): 15.7 ng/mL and 50.2 ng/mL and 28.6 ng/mL
[7]; 1 mg/kg, 1 mg/kg BIW 3 doses IP, 72 hours post last dose, group 4, read-out: Plasma Concentration of Compound 1 (individual mice)
  concentration at 72 h: 2.02 ng/mL
[7]; 1 mg/kg, 1 mg/kg BIW 3 doses IP, 72 hours post last dose, group 4, read-out: Plasma Concentration of Compound 1, Mean
  concentration at 72 h: 2.21 ng/mL
[7]; 1 mg/kg, 1 mg/kg single dose IP, 72 hours post last dose, group 2, BLOQ = below quantifiable limit of 1.05 ng/mL, read-out: Plasma Concentration of Compound 1 (individual mice)
  concentration at 72 h: 1.18 ng/mL
[7]; 1 mg/kg, 1 mg/kg single dose IP, 72 hours post last dose, group 2, read-out: Plasma Concentration of Compound 1, Mean
  concentration at 72 h: 1.39 ng/mL
[7]; 15 mg/kg, 15 mg/kg BIW 3 doses IP, 72 hours post last dose, group 5, read-out: Plasma Concentration of Compound 1 (individual mice)
  concentration at 72 h: 6.43 ng/mL
[7]; 15 mg/kg, 15 mg/kg BIW 3 doses IP, 72 hours post last dose, group 5, read-out: Plasma Concentration of Compound 1, Mean
  concentration at 72 h: 7.9 ng/mL
[7]; 15 mg/kg, 15 mg/kg single dose IP, 72 hours post last dose, group 3, read-out: Plasma Concentration of Compound 1, Mean
  concentration at 72 h: 31.5 ng/mL
[7]; 1 mg/kg, 1 mg/kg BIW 3 doses IP, 4 hours post last dose, group 4, read-out: Plasma Concentration of Compound 1, Mean
  concentration at 4 h: 10.8 ng/mL
[7]; 1 mg/kg, 1 mg/kg single dose IP, 4 hours post last dose, group 2, read-out: Plasma Concentration of Compound 1, Mean
  concentration at 4 h: 11.8 ng/mL
[7]; 15 mg/kg, 15 mg/kg BIW 3 doses IP, 4 hours post last dose, group 5, read-out: Plasma Concentration of Compound 1 (individual mice)
  concentration at 4 h: 82.9 ng/mL
[7]; 15 mg/kg, 15 mg/kg BIW 3 doses IP, 4 hours post last dose, group 5, read-out: Plasma Concentration of Compound 1, Mean
  concentration at 4 h: 72.5 ng/mL
[7]; 15 mg/kg, 15 mg/kg single dose IP, 4 hours post last dose, group 3, read-out: Plasma Concentration of Compound 1 (individual mice)
  concentration at 4 h: 147 ng/mL
[7]; 15 mg/kg, 15 mg/kg single dose IP, 4 hours post last dose, group 3, read-out: Plasma Concentration of Compound 1, Mean
  concentration at 4 h: 124 ng/mL
[7]; DU145 PK/PD cohort, 1 and 15 mg/kg IP, 4 h and 72 h post last dose
  exposures in plasma, in words: time and dose dependent exposures
[7]; at each dose level (1 and 15 mg/kg IP)
  exposure difference between a single dose and three doses: no obvious exposure difference
BRD9 protein; 15 mg/kg single dose IP
  BRD9 protein degradation (Western Blot): statistically and significantly degrade BRD9 protein
BRD9 protein; 15 mg/kg three doses IP
  BRD9 protein degradation (Western Blot): statistically and significantly degrade BRD9 protein
BRD9 protein; DU145 AR-negative prostate CDX model
  correlation of plasma PK with in vivo BRD9 degradation: positively corelates
